Measured values from PMC7356390, “Dehydrozingerone, a Curcumin Analog, as a Potential Anti-Prostate Cancer Inhibitor In Vitro and In Vivo” (Molecules, 2020).
Read-outs that look alike come from different tables or passages of the source.

Key:
[1] = In vivo pharmacokinetics and tissue distribution (HPLC); set-up: species or system male BALB/c mice; details: for concentration at 30 min: 30 min after 100 mg/kg i.p.; for concentration at 60 min: 60 min after 100 mg/kg i.p.; for Tmax: serum, ip, read-out: time to maximum serum concentration after i.p. administration
Procedure: Figure 5 Levels of serum Cur and DZG recorded in mice after receiving a single dose of Cur or DZG (100 mg/kg body weight) by intraperitoneal (i.p.) injection. Serum concentrations of Cur and DZG were determined by high-performance liquid chromatography (HPLC) using a reversed-phase C18 column (Waters). The mobile phase values were 52% acetonitrile and 48% citric buffer. Each point represents the mean ± S.E. of three or four mice.
A comparison of the pharmacokinetics between Cur and DZG was determined using seven-week-old male BALB/c mice. The designated 32 mice were randomly divided into 3 groups, identified as the control, Cur and DZG groups. Mice were i.p. injected with 50% DMSO in NSS (vehicle control), Cur or DZG at concentrations of 100 mg/kg of body weight for each mouse. The mice were euthanized, and blood from each mouse was collected at 0, 30, 60 and 180 min after injection. Lungs, liver and kidneys were removed and frozen for detection of the levels of concentrations of Cur and DZG.
The concentrations of Cur or DZG in the serum or organ tissues were determined using the HPLC method. The tissues were homogenized in 200 μl of 50% acetonitrile and vortexed for 5 min. Samples were centrifuged at 96.5 g at 4°C for 20 min. Fifty microliters of serum or tissue homogenate was mixed with 1.5-mg/mL trichloroacetic acid in 100 µl of acetonitrile. The substance was then centrifuged at 96.5 g at 4°C for 20 min. Sixty microliters of the supernatant was collected and subjected to HPLC using a reversed-phase C18 column (Waters Corporation, Milford, MA, USA). The mobile phase was composed of 52% acetonitrile and 48% citric buffer (1% w/v citric acid, pH 3.0), and the flow rate was set at 1 mL/min. The detection wavelength for Cur and DZG were 425 and 340 nm, respectively. Concentrations of Cur and DZG in the serum were calculated and compared to the standard curve (0–3200 ng/mL). The limits of quantification for Cur and DZG were 100 and 50 ng/mL, respectively. The extraction recovery from the plasma was approximately 90% for both Cur and DZG.

PLS10 cells = system: PLS10 cells; set-up: method as in PMID 30499149; details: read-out: IC50 of Cur on PLS10 cells (previous study); cited from earlier work
[2] = intraperitoneal administration of 100 mg/kg; cited from earlier work
HT-29 cells = system: HT-29 cells; set-up: method as in PMID 23245566; details: cited from earlier work
[3] = male, BALB/c, mouse, kidney, intraperitoneal, 100 mg/kg body weight, mean ± S.E., read-out: tissue concentration, Kidneys
[4] = male, BALB/c, mouse, liver, intraperitoneal, 100 mg/kg body weight, mean ± S.E., read-out: tissue concentration, Liver
[5] = male, BALB/c, mouse, lung, intraperitoneal, 100 mg/kg body weight, mean ± S.E., read-out: tissue concentration, Lung
[6] = male, BALB/c, mouse, single dose 100 mg/kg i.p., mice
[7] = single dose 100 mg/kg i.p., mice

Compound	concentration at 30 min [1, 3] [ng/g]	concentration at 60 min [1, 3] [ng/g]	concentration at 30 min [1, 4] [ng/g]	concentration at 30 min [1, 5] [ng/g]	Tmax [1, 6] [min]	maximum serum concentration [1, 7] [µg/mL]	time at detectable concentrations in the serum after i.p. injection [1, 7]	IC50 (PLS10 cells) [µM]	concentration at 180 min ([1]; male, BALB/c, mouse, kidney, intraperitoneal, 100 mg/kg body weight, 180 min after 100 mg/kg i.p., mean ± S.E., read-out: tissue concentration, Kidneys) [ng/g]	concentration at 60 min [1, 4] [ng/g]	concentration at 60 min [1, 5] [ng/g]	time of highest concentration in the kidneys after injection [1, 7] [h]	effect on serum aspartate aminotransferase, alanine transaminase, serum creatinine, blood urea and lactate dehydrogenase [2]	concentration range that suppressed proliferation of HT-29 cells (G2/M arrest) (HT-29 cells) [µM]
COc1cc(/C=C/C(=O)CC(=O)/C=C/c2ccc(O)c(OC)c2)ccc1O [Cur, Curcumin]	1010 ± 550	530 ± 190	2600 ± 780	1150 ± 1300	≤ 30	2.28 ± 2.42	≤ 1 h	26.5 ± 1.8	–	–	–	–	–	–
COc1cc(/C=C/C(C)=O)ccc1O [DZG, (E)-4-(4-hydroxy-3-methoxyphenyl)-but-3-en-2-one]	5920 ± 3800	9750 ± 4080	920 ± 670	1410 ± 740	≤ 30	4.87 ± 2.74	up to 3 h	–	860 ± 220	410 ± 110	720 ± 280	1	no effect	250 to 500
